The supplement of paper PMC10307832

Key:
Assay in all cases: relative viability (nuclei count vs DMSO), 5 days (fraction); higher = more cells survive
GW-2580 + Pictilisib = compound: COC1=CC=C(C=C1)COC2=C(C=C(C=C2)CC3=CN=C(N=C3N)N)OC [GW-2580] + CS(=O)(=O)N1CCN(Cc2cc3nc(-c4cccc5[nH]ncc45)nc(N4CCOCC4)c3s2)CC1 [Pictilisib] (partner 1 µM)
Procedure, shortened: (§1)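 Cells from lung cancer lines were seeded into 1536-well plates and, one day later, dosed by pin tool. Treatments were either a single drug or a fixed dose of an anchor drug with five library-drug doses (not always all listed) in √10 steps. After 5 days, nuclei were stained in a one-step fixation (final 0.05% Triton X-100, 1% formaldehyde, 1 ug/ml Hoechst) and counted on 4× images, and relative viability is the treated-to-vehicle nuclei ratio, as the median of duplicate plates.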

GW-2580 + Tozasertib = compound: COC1=CC=C(C=C1)COC2=C(C=C(C=C2)CC3=CN=C(N=C3N)N)OC [GW-2580] + Cc1cc(Nc2cc(N3CCN(C)CC3)nc(Sc3ccc(NC(=O)C4CC4)cc3)n2)n[nH]1 [Tozasertib] (partner 0.1 µM)
Procedure, shortened: as §1

GW-2580 + Linsitinib = compound: COC1=CC=C(C=C1)COC2=C(C=C(C=C2)CC3=CN=C(N=C3N)N)OC [GW-2580] + C[C@]1(O)C[C@@H](c2nc(-c3ccc4ccc(-c5ccccc5)nc4c3)c3c(N)nccn32)C1 [Linsitinib] (partner 1 µM)
Procedure, shortened: as §1

GW-2580 + OSI-027 = compound: COC1=CC=C(C=C1)COC2=C(C=C(C=C2)CC3=CN=C(N=C3N)N)OC [GW-2580] + COc1cccc2cc(-c3nc([C@H]4CC[C@H](C(=O)O)CC4)n4ncnc(N)c34)[nH]c12 [OSI-027] (partner 0.5 µM)
Procedure, shortened: as §1

GW-2580 + Crizotinib = compound: COC1=CC=C(C=C1)COC2=C(C=C(C=C2)CC3=CN=C(N=C3N)N)OC [GW-2580] + C[C@@H](Oc1cc(-c2cnn(C3CCNCC3)c2)cnc1N)c1c(Cl)ccc(F)c1Cl [Crizotinib] (partner 1 µM)
Procedure, shortened: as §1

Cell Line | relative viability (GW-2580 + Pictilisib; first compound 0.08 µM) | relative viability (GW-2580 + Pictilisib; first compound 0.8 µM) | relative viability (GW-2580 + Pictilisib; first compound 2.53 µM) | relative viability (GW-2580 + Pictilisib; first compound 8 µM) | relative viability (GW-2580 + Tozasertib; first compound 0.08 µM) | relative viability (GW-2580 + Tozasertib; first compound 0.8 µM) | relative viability (GW-2580 + Tozasertib; first compound 2.53 µM) | relative viability (GW-2580 + Tozasertib; first compound 8 µM) | relative viability (GW-2580 + Linsitinib; first compound 0.08 µM) | relative viability (GW-2580 + Linsitinib; first compound 0.8 µM) | relative viability (GW-2580 + Linsitinib; first compound 2.53 µM) | relative viability (GW-2580 + Linsitinib; first compound 8 µM) | relative viability (GW-2580 + OSI-027; first compound 0.08 µM) | relative viability (GW-2580 + OSI-027; first compound 0.8 µM) | relative viability (GW-2580 + OSI-027; first compound 2.53 µM) | relative viability (GW-2580 + OSI-027; first compound 8 µM) | relative viability (GW-2580 + Crizotinib; first compound 0.08 µM) | relative viability (GW-2580 + Crizotinib; first compound 0.8 µM) | relative viability (GW-2580 + Crizotinib; first compound 2.53 µM) | relative viability (GW-2580 + Crizotinib; first compound 8 µM)
HCC-44 | 0.688 | 0.717 | 0.582 | 0.619 | 1.13 | 0.913 | 0.937 | 0.918 | 0.736 | 0.759 | 0.628 | 0.687 | 0.51 | 0.523 | 0.5 | 0.524 | 0.899 | 0.843 | 0.751 | 0.839
HCC-78 | 0.242 | 0.245 | 0.171 | 0.227 | 0.253 | 0.357 | 0.401 | 0.314 | 0.541 | 0.574 | 0.371 | 0.486 | 0.362 | 0.434 | 0.337 | 0.337 | 0.331 | 0.384 | 0.287 | 0.297
HCC-366 | 0.148 | 0.199 | 0.141 | 0.137 | 0.102 | 0.146 | 0.12 | 0.19 | 0.51 | 0.678 | 0.496 | 0.882 | 0.944 | 1.13 | 0.894 | 0.818 | 0.618 | 0.581 | 0.334 | 0.509
HCC-827 | 1.01 | 1.01 | 0.949 | 0.963 | 0.557 | 0.469 | 0.47 | 0.371 | 0.975 | 1.03 | 1.01 | 0.961 | 0.848 | 0.906 | 0.278 | 0.687 | 0.874 | 0.933 | 0.863 | 0.868
HOP-62 | 0.909 | 0.72 | 0.63 | 0.736 | 0.404 | 0.374 | 0.333 | 0.326 | 1.05 | 0.953 | 0.877 | 0.982 | 0.905 | 0.801 | 0.847 | 0.985 | 0.986 | 1.12 | 0.926 | 0.98
IA-LM | 0.315 | 0.324 | 0.398 | 0.405 |  |  |  |  | 0.693 | 1.29 | 0.55 | 0.319 |  |  |  |  | 0.962 | 0.732 | 1.02 | 0.836
LC-2-ad | 0.577 | 0.502 | 0.447 | 0.413 | 0.501 | 0.412 | 0.405 | 0.475 | 0.817 | 0.874 | 0.84 | 0.786 | 0.88 | 0.867 | 0.87 | 0.78 | 0.484 | 0.527 | 0.462 | 0.459
LCLC-97TM1 | 0.197 |  | 0.159 | 0.181 | 0.289 | 0.161 | 0.154 | 0.261 | 0.207 |  | 0.164 | 0.177 | 0.556 | 0.614 | 0.624 | 0.426 | 0.554 |  | 0.303 | 0.284
NCI-H522 |  |  |  |  | 0.551 | 0.579 | 0.318 | 0.541 |  |  |  |  | 0.688 | 0.618 | 0.845 | 0.723 |  |  |  | 
NCI-H1299 | 0.776 | 0.736 | 0.773 | 0.748 |  |  |  |  | 1.09 | 0.969 | 0.952 | 0.907 |  |  |  |  | 0.974 | 0.984 | 0.972 | 0.892
NCI-H1395 | 0.626 | 0.584 | 0.561 | 0.632 | 0.829 | 0.805 | 0.658 | 0.734 | 1.07 | 1.08 | 0.97 | 0.931 | 0.64 | 0.689 | 0.661 | 0.684 |  |  |  | 
NCI-H1563 | 0.686 | 0.661 | 0.655 | 0.642 |  |  |  |  | 1.19 | 1.27 | 1.1 | 1.08 | 0.827 | 0.803 | 0.737 | 0.707 | 0.836 | 0.936 | 0.875 | 0.77
NCI-H1623 |  |  |  |  | 0.631 | 0.416 | 0.594 | 0.486 |  |  |  |  | 0.4 | 0.475 | 0.393 | 0.428 |  |  |  | 
NCI-H1648 |  |  |  |  | 0.427 |  |  | 0.429 |  |  |  |  | 0.27 |  |  | 0.231 |  |  |  | 
NCI-H1650 | 0.644 | 0.564 | 0.454 | 0.601 | 0.455 | 0.543 | 0.452 | 0.363 |  |  |  |  | 0.738 | 0.747 | 0.624 | 0.464 | 1.06 | 1.29 | 1.36 | 0.919
NCI-H1703 | 0.218 | 0.295 | 0.267 | 0.234 |  |  |  |  | 0.879 | 1.1 | 0.712 | 0.716 |  |  |  |  | 0.752 | 0.631 | 0.714 | 0.647
NCI-H1792 | 0.279 | 0.272 | 0.171 | 0.223 |  |  |  |  | 0.684 | 0.569 | 0.263 | 0.592 | 0.763 | 1.14 |  | 0.883 | 1.03 | 1.13 | 0.733 | 1.13
NCI-H1793 | 0.312 | 0.33 | 0.216 | 0.254 | 0.379 | 0.3 | 0.281 | 0.307 | 0.93 | 0.934 | 0.814 | 0.824 | 0.365 | 0.323 | 0.306 | 0.254 |  |  |  | 
NCI-H2170 | 0.316 | 0.353 | 0.304 | 0.287 | 1.04 | 0.816 | 0.777 | 0.677 |  |  |  |  | 0.757 | 0.745 | 0.735 | 0.748 | 1.23 | 1.33 | 1.22 | 1.36
NCI-H2342 |  |  |  |  | 0.557 | 0.498 | 0.516 | 0.418 |  |  |  |  | 0.574 | 0.671 | 0.519 | 0.62 |  |  |  | 
SW 900 |  |  |  |  | 0.572 | 0.559 | 0.6 | 0.559 |  |  |  |  | 0.69 | 0.693 | 0.569 | 0.75 |  |  |  | 
